Data published in patent publication US8802673B2, “Heterocyclic amine derivatives” (Hoffmann-La Roche Inc, priority 2011, dated 2014).

What was measured:
[1] = molecular target: rat TAAR1 (Rattus norvegicus (Rat), UniProt Q923Y9); assay: Radioligand binding assay on rat TAAR1; settings: rat TAAR1 (second value of the cell), HEK-293 membranes; read-out: Ki (μM) mouse/rat
Method: (§1) Construction of TAAR Expression Plasmids and Stably Transfected Cell Lines
(§2) For the construction of expression plasmids the coding sequences of human, rat and mouse TAAR 1 were amplified from genomic DNA essentially as described by Lindemann et al.. The Expand High Fidelity PCR System (Roche Diagnostics) was used with 1.5 mM Mg^2+ and purified PCR products were cloned into pCR2.1-TOPO cloning vector (Invitrogen) following the instructions of the manufacturer. PCR products were subcloned into the pIRESneo2 vector (BD Clontech, Palo Alto, Calif.), and expression vectors were sequence verified before introduction in cell lines.
(§3) HEK293 cells (ATCC #CRL-1573) were cultured essentially as described by Lindemann et al. (2005). For the generation of stably transfected cell lines HEK293 cells were transfected with the pIRESneo2 expression plasmids containing the TAAR coding sequences (described above) with Lipofectamine 2000 (Invitrogen) according to the instructions of the manufacturer, and 24 hrs post transfection the culture medium was supplemented with 1 mg/ml G418 (Sigma, Buchs, Switzerland). After a culture period of about 10 d clones were isolated, expanded and tested for responsiveness to trace amines (all compounds purchased from Sigma) with the cAMP Biotrak Enzyme immunoassay (EIA) System (Amersham) following the non-acetylation EIA procedure provided by the manufacturer.
Radioligand Binding Assay on Rat TAAR1
Membrane Preparation and Radioligand Binding
(§4) HEK-293 cells stably expressing rat TAAR1 were maintained at 37° C. and 5% CO2 in DMEM high glucose medium, containing fetal calf serum (10%, heat inactivated for 30 min at 56° C.), penicillin/streptomycin (1%), and 375 μg/ml geneticin (Gibco). Cells were released from culture flasks using trypsin/EDTA, harvested, washed twice with ice-cold PBS (without Ca^2+ and Mg^2+), pelleted at 1,000 rpm for 5 min at 4° C., frozen and stored at −80° C. Frozen pellets were suspended in 20 ml HEPES-NaOH (20 mM, pH 7.4) containing 10 mM EDTA and homogenized with a Polytron (PT 6000, Kinematica) at 14,000 rpm for 20 s. The homogenate was centrifuged at 48,000×g for 30 min at 4° C. Subsequently, the supernatant was removed and discarded, and the pellet resuspended in 20 ml HEPES-NaOH (20 mM, pH 7.4) containing 0.1 mM EDTA using the Polytron (20 s at 14,000 rpm). This procedure was repeated and the final pellet resuspended in HEPES-NaOH containing 0.1 mM EDTA and homogenized using the Polytron. Typically, aliquots of 2 ml membrane portions were stored at −80° C. With each new membrane batch the dissociation constant (Kd) was determined via a saturation curve. […] All compounds were tested at a broad range of concentrations (10 pM to 10 μM) in duplicates. […] The 96 deep well plates were incubated for 1 hr at 4° C. Incubations were terminated by rapid filtration through Unifilter-96 plates (Packard Instrument Company) and glass filters GF/C (Perkin Elmer) presoaked for 1 hr in polyethylenimine (0.3%) and washed 3 times with 1 ml of cold binding buffer. After addition of 45 μl of Microscint 40 (PerkinElmer) the Unifilter-96 plate was sealed and after 1 hr the ratioactivity counted using a TopCount Microplate Scintillation Counter (Packard Instrument Company).

[2] = molecular target: mouse TAAR1 (Mus musculus (Mouse), UniProt Q923Y8); assay: Radioligand binding assay on mouse TAAR1; settings: mouse TAAR1 (first value of the cell), HEK-293 membranes; read-out: Ki (μM) mouse/rat
mouse TAAR1, sequence (Q923Y8 whole entry): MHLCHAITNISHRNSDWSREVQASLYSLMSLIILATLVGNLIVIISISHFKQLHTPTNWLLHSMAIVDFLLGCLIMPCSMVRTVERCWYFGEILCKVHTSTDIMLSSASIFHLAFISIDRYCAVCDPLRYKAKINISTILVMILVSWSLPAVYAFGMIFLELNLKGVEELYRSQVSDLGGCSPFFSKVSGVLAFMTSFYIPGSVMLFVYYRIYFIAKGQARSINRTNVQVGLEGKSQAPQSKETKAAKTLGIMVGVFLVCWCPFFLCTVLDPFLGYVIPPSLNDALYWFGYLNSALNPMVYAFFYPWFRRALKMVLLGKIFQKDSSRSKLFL
Method: as §1, §2, §3
Radioligand Binding Assay on Mouse TAAR1
Membrane Preparation and Radioligand Binding.
as §4, with “expressing mouse” for “expressing rat”

rat TAAR1, sequence (Q923Y9 whole entry): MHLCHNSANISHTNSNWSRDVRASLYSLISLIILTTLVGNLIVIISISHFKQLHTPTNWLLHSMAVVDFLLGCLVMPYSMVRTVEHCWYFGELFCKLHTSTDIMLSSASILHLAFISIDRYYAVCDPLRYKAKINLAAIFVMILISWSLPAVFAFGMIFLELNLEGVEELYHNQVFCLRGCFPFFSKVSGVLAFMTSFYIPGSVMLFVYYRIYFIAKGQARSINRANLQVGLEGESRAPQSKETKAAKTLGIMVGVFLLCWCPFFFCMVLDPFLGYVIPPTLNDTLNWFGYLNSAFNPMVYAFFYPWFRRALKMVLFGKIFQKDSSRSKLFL

SMILES: CCc1cnc(Nc2ccc(C3CNCCO3)cc2F)nc1 (racemic) [Example 97, (RS)-5-Ethyl-N-(2-fluoro-4-(morpholin-2-yl)phenyl)pyrimidin-2-amine]
- Ki [1]: 0.0056 µM
- Ki [2]: 0.0029 µM

SMILES: CCOc1cnc(Nc2ccc(C3CNCCO3)cc2F)nc1 (racemic) [Example 100, (RS)-(5-Ethoxy-pyrimidin-2-yl)-(2-fluoro-4-morpholin-2-yl-phenyl)-amine]
- Ki [1]: 0.0164 µM
- Ki [2]: 0.0053 µM

SMILES: CCCc1cnc(Nc2ccc(C3CNCCO3)cc2F)nc1 (racemic) [Example 101, (RS)-(2-Fluoro-4-morpholin-2-yl-phenyl)-(5-propyl-pyrimidin-2-yl)-amine]
- Ki [1]: 0.0041 µM
- Ki [2]: 0.0032 µM

SMILES: Cc1cc(C2CNCCO2)cnc1Nc1ccc(Br)cn1 (racemic) [Example 120, (RS)—N-(5-Bromopyridin-2-yl)-3-methyl-5-(morpholin-2-yl)pyridin-2-amine]
- Ki [1]: 0.0364 µM
- Ki [2]: 0.0058 µM

SMILES: Fc1cc(C2CNCCO2)ccc1Nc1ncc(C(F)(F)F)cn1 (racemic) [Example 121, (RS)-(2-Fluoro-4-morpholin-2-yl-phenyl)-(5-trifluoromethyl-pyrimidin-2-yl)-amine]
- Ki [1]: 0.0096 µM
- Ki [2]: 0.0058 µM

SMILES: Cn1ccc(Nc2ccc(C3CNCCO3)cc2)n1 (racemic) [Example 140, (RS)-(1-Methyl-1H-pyrazol-3-yl)-(4-morpholin-2-yl-phenyl)-amine]
- Ki [1]: 5.25 µM
- Ki [2]: 0.0386 µM

SMILES: Cn1cc(Br)c(Nc2ccc(C3CNCCO3)cc2)n1 (racemic) [Example 143, (RS)-(4-Bromo-1-methyl-1H-pyrazol-3-yl)-(4-morpholin-2-yl-phenyl)-amine]
- Ki [1]: 0.284 µM
- Ki [2]: 0.418 µM

SMILES: c1cc(C2CNCCO2)ccc1Nc1ccn(CC2CC2)n1 (racemic) [Example 146, (RS)-(1-Cyclopropylmethyl-1H-pyrazol-3-yl)-(4-morpholin-2-yl-phenyl)-amine]
- Ki [1]: 0.14 µM
- Ki [2]: 0.0046 µM

SMILES: FC(F)Cn1ccc(Nc2ccc(C3CNCCO3)cc2)n1 (racemic) [Example 150, (RS)-[1-(2,2-Difluoro-ethyl)-1H-pyrazol-3-yl]-(4-morpholin-2-yl-phenyl)-amine]
- Ki [1]: 0.149 µM
- Ki [2]: 0.0134 µM

SMILES: Brc1ccc(Nc2ccc([C@H]3CNCCO3)cc2)nc1 [Example 10, (S)-5-Bromo-N-(4-(morpholin-2-yl)phenyl)pyridin-2-amine]
- Ki [1]: 0.0337 µM
- Ki [2]: 0.0015 µM

SMILES: FC(F)(F)c1ccc(Nc2ccc([C@H]3CNCCO3)cc2)nc1 [Example 11, (S)—N-(4-(Morpholin-2-yl)phenyl)-5-(trifluoromethyl)pyridin-2-amine]
- Ki [1]: 0.0233 µM
- Ki [2]: 0.0015 µM

SMILES: COc1cnc(Nc2ccc([C@H]3CNCCO3)cc2)nc1 [Example 12, (5-Methoxy-pyrimidin-2-yl)-((S)-4-morpholin-2-yl-phenyl)-amine]
- Ki [1]: 0.259 µM
- Ki [2]: 0.0055 µM

SMILES: c1ccc(CCNc2ccc([C@H]3CNCCO3)cc2)cc1 [Example 13, ((S)-4-Morpholin-2-yl-phenyl)-phenethyl-amine]
- Ki [1]: 0.108 µM
- Ki [2]: 0.0266 µM

SMILES: Fc1cnc(Nc2ccc([C@H]3CNCCO3)cc2)nc1 [Example 14, (5-Fluoro-pyrimidin-2-yl)-((S)-4-morpholin-2-yl-phenyl)-amine]
- Ki [1]: 0.504 µM
- Ki [2]: 0.0122 µM

SMILES: CCc1cnc(Nc2ccc([C@H]3CNCCO3)cc2)nc1 [Example 15, (5-Ethyl-pyrimidin-2-yl)-((S)-4-morpholin-2-yl-phenyl)-amine]
- Ki [1]: 0.0466 µM
- Ki [2]: 0.0028 µM

SMILES: N#Cc1cnc(Nc2ccc([C@H]3CNCCO3)cc2)nc1 [Example 16, 2-((S)-4-Morpholin-2-yl-phenylamino)-pyrimidine-5-carbonitrile]
- Ki [1]: 0.448 µM
- Ki [2]: 0.0276 µM

SMILES: c1cc([C@H]2CNCCO2)ccc1Nc1ncc(C2CC2)cn1 [Example 17, (5-Cyclopropyl-pyrimidin-2-yl)-((S)-4-morpholin-2-yl-phenyl)-amine]
- Ki [1]: 0.0131 µM
- Ki [2]: 0.0017 µM

SMILES: Cc1cnc(Nc2ccc([C@H]3CNCCO3)cc2)nc1 [Example 18, (5-Methyl-pyrimidin-2-yl)-((S)-4-morpholin-2-yl-phenyl)-amine]
- Ki [1]: 0.313 µM
- Ki [2]: 0.0054 µM

SMILES: FC(F)(F)c1cnc(Nc2ccc([C@H]3CNCCO3)cc2)nc1 [Example 19, ((S)-4-Morpholin-2-yl-phenyl)-(5-trifluoromethyl-pyrimidin-2-yl)-amine]
- Ki [1]: 0.0236 µM
- Ki [2]: 0.0056 µM

SMILES: COc1ccc(CNc2ccc([C@H]3CNCCO3)cc2)cc1 [Example 20, (4-Methoxy-benzyl)-((S)-4-morpholin-2-yl-phenyl)-amine]
- Ki [1]: 0.764 µM
- Ki [2]: 0.0453 µM

SMILES: CCCc1cnc(Nc2ccc([C@H]3CNCCO3)cc2)nc1 [Example 21, ((S)-4-Morpholin-2-yl-phenyl)-(5-propyl-pyrimidin-2-yl)-amine]
- Ki [1]: 0.0245 µM
- Ki [2]: 0.002 µM

SMILES: Cc1ccc(CNc2ccc([C@H]3CNCCO3)cc2)cc1 [Example 22, (4-Methyl-benzyl)-((S)-4-morpholin-2-yl-phenyl)-amine]
- Ki [1]: 0.468 µM
- Ki [2]: 0.0375 µM

SMILES: N#Cc1ccc(CNc2ccc([C@H]3CNCCO3)cc2)cc1 [Example 23, 4-[((S)-4-Morpholin-2-yl-phenylamino)-methyl]-benzonitrile]
- Ki [1]: 1.64 µM
- Ki [2]: 0.0514 µM

SMILES: FC(F)(F)c1ccc(CNc2ccc([C@H]3CNCCO3)cc2)cc1 [Example 24, ((S)-4-Morpholin-2-yl-phenyl)-(4-trifluoromethyl-benzyl)-amine]
- Ki [1]: 0.149 µM
- Ki [2]: 0.0119 µM

SMILES: FC(F)(F)Oc1ccc(CNc2ccc([C@H]3CNCCO3)cc2)cc1 [Example 25, ((S)-4-Morpholin-2-yl-phenyl)-(4-trifluoromethoxy-benzyl)-amine]
- Ki [1]: 0.0705 µM
- Ki [2]: 0.0124 µM

SMILES: Clc1ccc2nc(Nc3ccc([C@H]4CNCCO4)cc3)sc2c1 [Example 26, (6-Chloro-benzothiazol-2-yl)-((S)-4-morpholin-2-yl-phenyl)-amine]
- Ki [1]: 0.0083 µM
- Ki [2]: 0.002 µM

SMILES: Brc1ccc(CNc2ccc([C@H]3CNCCO3)cc2)nc1 [Example 27, (5-Bromo-pyridin-2-ylmethyl)-((S)-4-morpholin-2-yl-phenyl)-amine]
- Ki [1]: 0.808 µM
- Ki [2]: 0.0438 µM

SMILES: COc1cccc(CNc2ccc([C@H]3CNCCO3)cc2)n1 [Example 28, (6-Methoxy-pyridin-2-ylmethyl)-((S)-4-morpholin-2-yl-phenyl)-amine]
- Ki [1]: 0.561 µM
- Ki [2]: 0.276 µM

SMILES: CCOc1cnc(Nc2ccc([C@H]3CNCCO3)cc2)nc1 [Example 29, (5-Ethoxy-pyrimidin-2-yl)-((S)-4-morpholin-2-yl-phenyl)-amine]
- Ki [1]: 0.155 µM
- Ki [2]: 0.0042 µM
